Measurements: ChEMBL document CHEMBL1201862, “PubChem BioAssay data set” (2004)
Where a name gives a salt, the structure may show the parent alone.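 In this assay, cells in 96-well plates receive the compound at five concentrations for 48 hours. Endpoints are linearly interpolated between the surrounding concentrations. At the GI50, growth is halved.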 Activity calls are given as the source filed them. No stated cut-off is given here; in the data, active = GI50 up to about 1.1 µM and inactive = higher.

Tests used:
Assay in all cases: growth of human tumour cells (NCI), 48 h
[1] = system: SK-MEL-5
[2] = system: HCT-116
[3] = system: RXF 393
[4] = system: CAKI-1
[5] = system: SF-295
[6] = system: KM12
[7] = system: OVCAR-4
[8] = system: UO-31
[9] = system: RPMI-8226
[10] = system: COLO 205
[11] = system: T47D
[12] = system: DU-145
[13] = system: MDA-N
[14] = system: HL-60
[15] = system: SNB-19
[16] = system: MDA-MB-231
[17] = system: HOP-62
[18] = system: MCF7
[19] = system: LOX IMVI
[20] = system: NCI-H23

Measured: GI50

CC(=O)N(C)c1ccc(Nc2cc(C)nc3ccc4nc[nH]c4c23)cc1 [ACODAZOLE HYDROCHLORIDE]
inactive: [1] 7.28 µM | [2] 4.55 µM | [3] 9.25 µM | [4] 5.04 µM | [5] 14.1 µM | [6] 7.96 µM | [7] 11.7 µM | [8] 12.2 µM | [9] 8.07 µM | [10] 4.38 µM | [11] 6.79 µM | [12] 5.81 µM | [13] 10.5 µM | [14] 7.03 µM | [15] 10.2 µM | [16] 13.6 µM | [17] 6.19 µM | [18] 3.66 µM | [19] 5.15 µM | [20] 10.2 µM

Cc1ccc(S[C@@](C=O)(NC(=O)OCc2ccccc2)C(F)(F)F)cc1
inactive: [1] 23.7 µM | [2] 16.1 µM | [3] 14.4 µM | [4] 26.1 µM | [5] 31 µM | [6] 20.8 µM | [7] 44.9 µM | [8] 15.6 µM | [9] 20.6 µM | [10] 17 µM | [11] 23.8 µM | [12] 21.7 µM | [13] 22.8 µM | [14] 16.5 µM | [15] 21 µM | [16] 19.6 µM | [17] 29 µM | [18] 26.7 µM | [19] 21.3 µM | [20] 19.5 µM
